The values below come from patent US8334236B2, “Ring-fused 2-pyridone derivatives and herbicides” (Kumiai Chemical Industry Co., Ltd., priority 2009, dated 2012).

What all share (type): in vivo
Parameters in all cases: scale not given here

The test system of assay [1] is Setaria viridis. Put plainly: Test Example 2: herbicidal effects in farmland soil treatment. To be noted: 1000 g active ingredient per hectare, 21st day after treatment.
Assay [2] concerns Echinochloa crus-galli (L.) P. Beauv. var. crus-galli. Put plainly: Test Example 3: herbicidal effects in farmland foliar treatment. The following applies: 1000 g active ingredient per hectare, 14th day after treatment. How it is done: (§1) 80-cm^2 plastic pots were filled with farmland soil. Seeds of Echinochloa crus-galli (L.) P. Beauv. var. crus-galli, Abutilon theophrasti medicus, and Amaranthus retroflexus were sowed in the pots, and the plants were grown for two weeks in a greenhouse. A wettable powder formulation prepared according to Formulation Example 1 was diluted with water, and the dilution was applied by foliar treatment by spraying with a small sprayer over the whole plant from the upper part, in an amount equivalent to 1000 liters per hectare, such that 1000 g of the active ingredient was applied per hectare. Thereafter, the plants were grown in a greenhouse, and on the 14th day after the treatment, the herbicidal effects were investigated according to the criteria described in Table 71 shown above.

Assay [3] deals with Abutilon theophrasti medicus. The description is as above. To be noted: 1000 g active ingredient per hectare, 14th day after treatment. The procedure:
as §1

The subject of assay [4] is Amaranthus retroflexus. Described as above. The following applies: 1000 g active ingredient per hectare, 14th day after treatment. The procedure: as §1
Assay [5] concerns Monochoria vaginalis (Burm. f.) Presl var. plantaginea (Roxb.) Solms-Laub. Put plainly: Test Example 1: herbicidal effects in paddy field soil treatment. To be noted: 1000 g active ingredient per hectare, 21st day after treatment. How it is done:
(§2) 100-cm^2 plastic pots were filled with paddy field soil. After puddling and leveling, seeds of Echinochloa oryzicola Vasing, Monochoria vaginalis (Burm. f.) Presl var. plantaginea (Roxb.) Solms-Laub., and Scirpus juncoides Roxb. var. ohwianus. T. Koyama were sowed in the pots, and the soil was waterlogged to a water depth of 3 cm. On the next day, a wettable powder formulation prepared according to Formulation Example 1 was diluted with water, and the dilution was added dropwise onto the water surface. The amount of application was an amount equivalent to 1000 g of the active ingredient per hectare. Thereafter, the plants were grown in a greenhouse, and on the 21st day after the treatment, the herbicidal effects were investigated according to the criteria described in Table 71.
(§3) In addition, comparative compound A, comparative compound B, comparative compound C, and comparative compound D in the tables represent Compound Nos. 70, 34, 32, and 31, respectively, as described in EP-283261. The structural formulas of these compounds are presented below.

Assay [6] deals with Echinochloa oryzicola Vasing. The assay is described as above. The following applies: 1000 g active ingredient per hectare, 21st day after treatment. How it is done: as §2, §3
For assay [7], the system named is Scirpus juncoides Roxb. var. ohwianus. T. Koyama. The assay is described as above. The following applies: 1000 g active ingredient per hectare, 21st day after treatment. The procedure: as §2, §3
Assay [8] has as its system Abutilon theophrasti medicus. Nature of the assay: Test Example 2: herbicidal effects in farmland soil treatment. To be noted: 1000 g active ingredient per hectare, 21st day after treatment. How it is done:
as §1, with “of” for “of Echinochloa crus-galli (L.) P. Beauv. var. crus-galli,”, “medicus” for “medicus,”, “soil was covered.” for “the plants were grown for two weeks in a greenhouse.”, “uniformly sprayed on the soil surface” for “applied by foliar treatment by spraying”, “sprayer,” for “sprayer over the whole plant from the upper part,”, “21st” for “14th”

Assay [9] concerns Amaranthus retroflexus. The assay is described as above. The following applies: 1000 g active ingredient per hectare, 21st day after treatment. The procedure: as §1, with “of” for “of Echinochloa crus-galli (L.) P. Beauv. var. crus-galli,”, “medicus” for “medicus,”, “soil was covered.” for “the plants were grown for two weeks in a greenhouse.”, “uniformly sprayed on the soil surface” for “applied by foliar treatment by spraying”, “sprayer,” for “sprayer over the whole plant from the upper part,”, “21st” for “14th”

Assay [10] deals with Setaria viridis. Nature of the assay: Test Example 3: herbicidal effects in farmland foliar treatment. To be noted: 1000 g active ingredient per hectare, 14th day after treatment.
In another assay the test system is Echinochloa crus-galli. Put plainly: Test Example 2: herbicidal effects in farmland soil treatment. The following applies: 1000 g active ingredient per hectare, 21st day after treatment.

As for `COc1ccc(-n2c(=O)c(C(=O)C3=C(O)CCCC3=O)cc3cccnc32)cc1` [II-56], the “Herbicidal effect index, Setaria viridis” value in the assay on Setaria viridis [1] and with Setaria viridis [10] was 5 in each case. Moreover, the “Herbicidal effect index, Echinochloa crus-galli” value (in [2]; in the assay on Echinochloa crus-galli) was 5 in each case. Further, the “Herbicidal effect index, Abutilon theoprasti” value in assay [3] stood at 5. In addition, the “Herbicidal effect index, Amaranthus retroflexus” value with Amaranthus retroflexus [4] and with Amaranthus retroflexus [9] was 5 throughout. In [5], the “Herbicidal effect index, Monochoria vaginalis” value was found to be 5. In addition, the “Herbicidal effect index, Echinochloa oryzicola” value in assay [6] came out at 5. The “Herbicidal effect index, Scirpus juncoides” value in assay [7] stood at 5. Besides, the “Herbicidal effect index, Abutilon thophrasti” value in assay [8] came to 5.

Turning to `O=C1CCCC(O)=C1C(=O)c1cnccn1` [Comparative compound A, reference compound], the “Herbicidal effect index, Setaria viridis” value amounted to 1 in the assay on Setaria viridis [1] and 0 with Setaria viridis [10]. Also, the results for the “Herbicidal effect index, Echinochloa crus-galli” value (in assay [2]; in the assay with Echinochloa crus-galli) were 0 and 5, respectively. The “Herbicidal effect index, Abutilon theoprasti” value in [3] stood at 2. The “Herbicidal effect index, Amaranthus retroflexus” value in the assay with Amaranthus retroflexus [4] was 1; in the assay with Amaranthus retroflexus [9] it was 0. Further, in assay [5], the “Herbicidal effect index, Monochoria vaginalis” value was found to be 0. Also, the “Herbicidal effect index, Echinochloa oryzicola” value in assay [6] worked out at 2. Besides, the “Herbicidal effect index, Scirpus juncoides” value in assay [7] is 0. Also, the “Herbicidal effect index, Abutilon thophrasti” value in assay [8] is 1.

`Cc1ccccc1-n1c(=O)c(C(=O)C2=C(O)CCCC2=O)cc2cccnc21` [II-48]: the “Herbicidal effect index, Setaria viridis” value with Setaria viridis [1] and with Setaria viridis [10] was 5 throughout. The “Herbicidal effect index, Echinochloa crus-galli” value (in [2]; in the assay on Echinochloa crus-galli) was 5 each time. The “Herbicidal effect index, Abutilon theoprasti” value in assay [3] is recorded as 5. The “Herbicidal effect index, Amaranthus retroflexus” value with Amaranthus retroflexus [4] and with Amaranthus retroflexus [9] was 5 in each case. Also, the “Herbicidal effect index, Monochoria vaginalis” value in [5] is 5. Further, in assay [6], the “Herbicidal effect index, Echinochloa oryzicola” value came out at 5. In addition, the “Herbicidal effect index, Scirpus juncoides” value in assay [7] was 5. Also, the “Herbicidal effect index, Abutilon thophrasti” value in [8] is 4.

Consider `CC1(C)CC(=O)C(C(=O)c2cnc3ccccc3n2)=C(O)C1` [Comparative compound C, reference compound], for which the “Herbicidal effect index, Setaria viridis” value in the assay on Setaria viridis [1] and in the assay on Setaria viridis [10] was 0 in each case. In addition, the entries for the “Herbicidal effect index, Echinochloa crus-galli” value (in assay [2]; in the assay with Echinochloa crus-galli) were 0 and 2, respectively. Moreover, the “Herbicidal effect index, Abutilon theoprasti” value in assay [3] is 4. Moreover, the “Herbicidal effect index, Amaranthus retroflexus” value with Amaranthus retroflexus [4] is 0; with Amaranthus retroflexus [9] it was 3. Further, the “Herbicidal effect index, Monochoria vaginalis” value in assay [5] amounted to 2. Further, the “Herbicidal effect index, Echinochloa oryzicola” value in assay [6] is 1. Further, the “Herbicidal effect index, Scirpus juncoides” value in [7] amounted to 1. For the same compound, in [8], the “Herbicidal effect index, Abutilon thophrasti” value is 0.

As for `O=C1CCCC(O)=C1C(=O)c1ccc2ccccc2n1` [Comparative compound B, reference compound], the “Herbicidal effect index, Setaria viridis” value in the assay with Setaria viridis [1] and with Setaria viridis [10] was 0 in each case. The “Herbicidal effect index, Echinochloa crus-galli” value in assay [2] turned out to be 0; in the assay with Echinochloa crus-galli it was 3. Also, in assay [3], the “Herbicidal effect index, Abutilon theoprasti” value was found to be 5. Besides, the results for the “Herbicidal effect index, Amaranthus retroflexus” value in the assay on Amaranthus retroflexus [4] and in the assay with Amaranthus retroflexus [9] were 1 and 2, respectively. Besides, in assay [5], the “Herbicidal effect index, Monochoria vaginalis” value was 0. Further, in assay [6], the “Herbicidal effect index, Echinochloa oryzicola” value worked out at 0. In addition, the “Herbicidal effect index, Scirpus juncoides” value in assay [7] amounted to 0. For the same compound, in assay [8], the “Herbicidal effect index, Abutilon thophrasti” value came to 2.

As for `O=C1CCCC(O)=C1C(=O)c1cc2cccnc2n(-c2cccc(F)c2)c1=O` [II-43], the “Herbicidal effect index, Setaria viridis” value in the assay with Setaria viridis [1] and in the assay with Setaria viridis [10] was 5 each time. The “Herbicidal effect index, Echinochloa crus-galli” value (in assay [2]; with Echinochloa crus-galli) was 5 in each case. Besides, the “Herbicidal effect index, Abutilon theoprasti” value in assay [3] turned out to be 5. The “Herbicidal effect index, Amaranthus retroflexus” value with Amaranthus retroflexus [4] and in the assay with Amaranthus retroflexus [9] was 5 in each case. The “Herbicidal effect index, Monochoria vaginalis” value in assay [5] stood at 5. Besides, in assay [6], the “Herbicidal effect index, Echinochloa oryzicola” value amounted to 5. Also, the “Herbicidal effect index, Scirpus juncoides” value in assay [7] was found to be 5. Besides, in [8], the “Herbicidal effect index, Abutilon thophrasti” value amounted to 5.

On to `COc1cccc(-n2c(=O)c(C(=O)C3=C(O)CCCC3=O)cc3cccnc32)c1` [II-55], for which the “Herbicidal effect index, Setaria viridis” value in the assay on Setaria viridis [1] and with Setaria viridis [10] was 5 throughout. The “Herbicidal effect index, Echinochloa crus-galli” value (in assay [2]; in the assay on Echinochloa crus-galli) was 5 throughout. Besides, the “Herbicidal effect index, Abutilon theoprasti” value in assay [3] worked out at 5. Besides, the “Herbicidal effect index, Amaranthus retroflexus” value in the assay on Amaranthus retroflexus [4] and in the assay on Amaranthus retroflexus [9] was 5 throughout. In assay [5], the “Herbicidal effect index, Monochoria vaginalis” value is 5. The “Herbicidal effect index, Echinochloa oryzicola” value in [6] was 5. In addition, the “Herbicidal effect index, Scirpus juncoides” value in [7] turned out to be 5. Besides, in [8], the “Herbicidal effect index, Abutilon thophrasti” value is reported as 5.

Turning to `CCOCCn1c(=O)c(C(=O)C2=C(O)CCCC2=O)cc2cccnc21` [II-15], the “Herbicidal effect index, Setaria viridis” value in the assay on Setaria viridis [1] and with Setaria viridis [10] was 5 in each case. For the same compound, the “Herbicidal effect index, Echinochloa crus-galli” value (in assay [2]; in the assay on Echinochloa crus-galli) was 5 each time. The “Herbicidal effect index, Abutilon theoprasti” value in assay [3] amounted to 5. Besides, the “Herbicidal effect index, Amaranthus retroflexus” value with Amaranthus retroflexus [4] and in the assay on Amaranthus retroflexus [9] was 5 each time. For the same compound, the “Herbicidal effect index, Monochoria vaginalis” value in assay [5] was 5. Further, in assay [6], the “Herbicidal effect index, Echinochloa oryzicola” value came out at 5. The “Herbicidal effect index, Scirpus juncoides” value in [7] turned out to be 5. Also, the “Herbicidal effect index, Abutilon thophrasti” value in assay [8] is listed as 5.

Regarding `O=C1CCCC(O)=C1C(=O)c1cc2ccc(C(F)(F)Cl)nc2n(-c2ccccc2)c1=O` [II-143], the “Herbicidal effect index, Setaria viridis” value in the assay with Setaria viridis [1] and with Setaria viridis [10] was 5 throughout. Also, the “Herbicidal effect index, Echinochloa crus-galli” value (in [2]; in the assay on Echinochloa crus-galli) was 5 throughout. For the same compound, the “Herbicidal effect index, Abutilon theoprasti” value in assay [3] was 5. The “Herbicidal effect index, Amaranthus retroflexus” value in the assay with Amaranthus retroflexus [4] and in the assay on Amaranthus retroflexus [9] was 5 each time. Further, the “Herbicidal effect index, Monochoria vaginalis” value in assay [5] was 5. Besides, the “Herbicidal effect index, Echinochloa oryzicola” value in [6] is listed as 5. In assay [7], the “Herbicidal effect index, Scirpus juncoides” value is given as 5. Besides, the “Herbicidal effect index, Abutilon thophrasti” value in [8] is reported as 5.

As to `Cc1ccc(C)c(-n2c(=O)c(C(=O)C3=C(O)CCCC3=O)cc3cccnc32)c1` [II-58], the “Herbicidal effect index, Setaria viridis” value in the assay with Setaria viridis [1] and in the assay with Setaria viridis [10] was 5 in each case. In addition, the “Herbicidal effect index, Echinochloa crus-galli” value (in [2]; with Echinochloa crus-galli) was 5 in each case. For the same compound, the “Herbicidal effect index, Abutilon theoprasti” value in [3] turned out to be 5. For the same compound, the “Herbicidal effect index, Amaranthus retroflexus” value in the assay with Amaranthus retroflexus [4] and with Amaranthus retroflexus [9] was 5 in each case. Also, in assay [5], the “Herbicidal effect index, Monochoria vaginalis” value was 5. In [6], the “Herbicidal effect index, Echinochloa oryzicola” value came to 5. For the same compound, the “Herbicidal effect index, Scirpus juncoides” value in assay [7] stood at 5. In addition, the “Herbicidal effect index, Abutilon thophrasti” value in [8] amounted to 5.
